Measurements: the supplement of paper PMC4862054
Values joined by “and” are separate entries in the source; they are usually repeats but may differ in a detail not shown here. Equal entries are not always repeated.

Key:
Test in all cases: normalised viability (% of control), CellTiter-Blue; higher = more viable cells (about 100 = DMSO control)
Conditions in all cases: incubation time: 72 h
DU-4475 = system: DU-4475
Procedure: (§1)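 DSRT, CellTiter-Blue viability, 72 h incubation. Signal is normalised to DMSO and benzethonium chloride controls. Value is the normalised response at dose 8.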

CAL-51 = system: CAL-51
Procedure: as §1

HDQ-P1 = system: HDQ-P1
Procedure: as §1

MDA-MB-453 = system: MDA-MB-453
Procedure: as §1

CAL-85-1 = system: CAL-85-1
Procedure: as §1

CAL-148 = system: CAL-148
Procedure: as §1

SMILES | normalised viability (DU-4475) | normalised viability (CAL-51) | normalised viability (HDQ-P1) | normalised viability (MDA-MB-453) | normalised viability (CAL-85-1) | normalised viability (CAL-148)
O=C(Nc1c[nH]nc1-c1nc2ccc(CN3CCOCC3)cc2[nH]1)NC1CC1 [AT9283] (3000 nM) | 0.96% | 25.5% | 25.9% | 26.9% | 16.8% | 67.2%
COc1cc(CCc2cc(NC(=O)c3ccc(N4CC(C)NC(C)C4)cc3)n[nH]2)cc(OC)c1 (centres undefined) [AZD4547] (300 nM) | 97.8% | 96.4% | 117% | 56.1% | 95.5% | 105%
CCC/C=C/C=C/C(=O)O[C@H]1/C(=C/C(=O)OC)C[C@H]2C[C@H]([C@@H](C)O)OC(=O)C[C@H](O)C[C@@H]3C[C@H](OC(C)=O)C(C)(C)[C@](O)(C[C@@H]4C/C(=C/C(=O)OC)C[C@H](/C=C/C(C)(C)[C@]1(O)O2)O4)O3 [Bryostatin 1] (30 nM) | 65% | 95.3% | 100% | 96.6% | 111% | 110%
CO[C@@H](C(=O)N1Cc2[nH]nc(NC(=O)c3ccc(N4CCN(C)CC4)cc3)c2C1)c1ccccc1 [Danusertib] (3000 nM) | 23.1% | 25.9% | 27.8% | 34.2% | 40.5% | 53.5%
Cc1nc(Nc2ncc(C(=O)Nc3c(C)cccc3Cl)s2)cc(N2CCN(CCO)CC2)n1 [Dasatinib] (300 nM) | 102% and 104% | 41.5% and 39.9% | 9.87% and 10.7% | 99.2% and 103% | 51.2% and 43.6% | 90% and 89.1%
O=S(=O)(c1cccc2cnccc12)N1CCCNCC1 [Fasudil] (3000 nM) | 113% | 118% | 121% | 99.4% | 101% | 81.2%
CS(=O)(=O)N1CCN(Cc2cc3nc(-c4cccc5[nH]ncc45)nc(N4CCOCC4)c3s2)CC1 [GDC-0941] (3000 nM) | 104% | 14.3% | 14.5% | 10.6% | 31.9% | 18.6%
Cc1c(CN2CCN(C(=O)[C@H](C)O)CC2)sc2c(N3CCOCC3)nc(-c3cnc(N)nc3)nc12 [GDC-0980] (3000 nM) | 19.4% | 7.42% | 14.2% | 6.67% | 16.9% | 5.28%
Nc1cccc2c1CN(C1CCC(=O)NC1=O)C2=O (centres undefined) [Lenalidomide] (3000 nM) | 101% and 100% | 109% and 105% | 93.5% and 92.2% | 96.9% and 117% | 88.6% and 90.2% | 80.2% and 98.3%
C[C@]12O[C@H](C[C@]1(O)CO)n1c3ccccc3c3c4c(c5c6ccccc6n2c5c31)CNC4=O [Lestaurtinib] (300 nM) | 26.7% | 76.5% | 92.4% | 50.2% | 65% | 75.9%
O=C1c2c(O)ccc(O)c2C(=O)c2c(NCCNCCO)ccc(NCCNCCO)c21 [Mitoxantrone] (300 nM) | 9.52% | 28% | 52.5% | 66% | 59.1% | 12.7%
Nc1ccccc1NC(=O)c1ccc(CNc2nccc(-c3cccnc3)n2)cc1 [Mocetinostat] (3000 nM) | 5.41% | 51.7% | 71.6% | 20.6% | 23.6% | 37.3%
COc1nc(N)nc2c1ncn2[C@@H]1O[C@H](CO)[C@@H](O)[C@@H]1O [Nelarabine] (3000 nM) | 121% and 112% | 102% and 97.6% | 74.7% and 87.7% | 86.7% and 106% | 94.5% and 98% | 90.6% and 84.7%
Cc1ccc(Nc2nccc(N(C)c3ccc4c(C)n(C)nc4c3)n2)cc1S(N)(=O)=O [Pazopanib] (3000 nM) | 110% | 87.6% | 77.9% | 42.5% | 96% | 67.7%
O=C(CCBr)N1CCN(C(=O)CCBr)CC1 [Pipobroman] (3000 nM) | 106% | 124% | 100% | 108% | 102% | 104%
c1cc(CN2CCCNCCNCCCNCC2)ccc1CN1CCCNCCNCCCNCC1 [Plerixafor] (750 nM) | 95.9% | 103% | 119% | 92.5% | 93% | 79.1%
C[C@]12C=CC(=O)C=C1CC[C@@H]1[C@@H]2[C@@H](O)C[C@@]2(C)[C@H]1CC[C@]2(O)C(=O)CO [Prednisolone] (3000 nM) | 106% | 102% | 121% | 75.4% | 117% | 96%
CCN(CC)CCNC(=O)c1c(C)[nH]c(/C=C2\C(=O)Nc3ccc(F)cc32)c1C [Sunitinib] (300 nM) | 102% and 94.5% | 113% and 96% | 97.1% and 115% | 101% and 83.8% | 107% and 105% | 93.2% and 108%
CC[C@@]1(O)C(=O)OCc2c1cc1n(c2=O)Cc2cc3c(CN(C)C)c(O)ccc3nc2-1 [Topotecan] (300 nM) | 47.5% | 66.2% | 87.8% | 69.3% | 66.9% | 31.4%
